From US20210238139A1, “MODULATORS OF TRYPTOPHAN CATABOLISM” (E-Therapeutics PLC, priority 2018, published 2021)

The compounds below were run on SK-OV-3 cells (assay: Effect of compounds on tryptophan catabolism in SK-OV-3 cell line (inhibition of kynurenine production, LC-MS/MS)). Details: Homo sapiens, SK-OV-3, 24 h, SK-OV-3 cell line, 24 h incubation, kynurenine in supernatant by LC-MS/MS; read-out: IC50 Ranges (ic50 values for inhibition of Kynurenine production).
Assay type: cell-based
Method: SK-OV-3 cells are seeded in 96-well plates in McCoy's 5A medium supplemented with 10% FBS and incubated overnight at 37° C., 5% CO2, 95% humidity. The […] growth medium is replaced with DMEM F-12 medium supplemented with 6 mg/mL L-tryptophan. Compounds are added to the wells and incubated for 24 h at 37° C., 5% CO2, 95% humidity. Compounds are tested at 8 consecutive 3-fold dilutions starting from 30 μM in duplicate. At the end of incubation, concentration of kynurenine in cell supernatants is […] determined by LC-MS/MS. In parallel, cell viability is assessed by measurement of ATP using CellTiter Glo assay (Promega), according to manufacturer's protocol. Inhibition of Kyn production is calculated using the following formula: […] IC50 ranges for compounds of the invention are presented in Table 2, whereby the IC50 ranges are as follows: • A: […]

SMILES	IC50 [nM]
O=C(Nc1ccccc1)N(Cc1cccnc1)C1CCCC1 [Compound 65, 1-cyclopentyl-3-phenyl-1-(3-pyridylmethyl)urea]	1000 to 5000
O=C(Nc1ccccc1)N(Cc1ccccn1)C1CCCC1 [Compound 67, 1-cyclopentyl-3-phenyl-1-(2-pyridylmethyl)urea]	1000 to 5000
O=C(Nc1ccc(F)cc1)N(Cc1ccccn1)C1CCCC1 [Compound 68, 1-cyclopentyl-3-(4-fluorophenyl)-1-(2-pyridylmethyl)urea]	1000 to 5000
O=C(Nc1ccc(F)cc1)N(Cc1cnccn1)C1CCCC1 [Compound 70, 1-cyclopentyl-3-(4-fluorophenyl)-1-(pyrazin-2-ylmethyl)urea]	> 5000
O=C(Nc1ccc(F)cc1)N(Cc1ncccn1)C1CCCC1 [Compound 72, 1-cyclopentyl-3-(4-fluorophenyl)-1-(pyrimidin-2-ylmethyl)urea]	> 5000
O=C(Nc1ccc(Cl)cc1)N(Cc1ncccn1)C1CCCC1 [Compound 73, 3-(4-chlorophenyl)-1-cyclopentyl-1-(pyrimidin-2-ylmethyl)urea]	1000 to 5000
O=C(Nc1ccc(F)cc1)N(Cc1ccncc1)C1CCCC1 [Compound 75, 1-cyclopentyl-3-(4-fluorophenyl)-1-(4-pyridylmethyl)urea]	> 5000
CC1(CN(C(=O)Nc2ccccc2)C2CCCC2)CCNCC1 [Compound 85, 1-cyclopentyl-1-[(4-methyl-4-piperidyl)methyl]-3-phenyl-urea]	1000 to 5000
CC1(CN(C(=O)Nc2ccc(F)cc2)C2CCCC2)CCNCC1 [Compound 86, 1-cyclopentyl-3-(4-fluorophenyl)-1-[(4-methyl-4-piperidyl)methyl]urea]	1000 to 5000
CC1(CN(C(=O)Nc2ccc(Cl)cc2)C2CCCC2)CCNCC1 [Compound 87, 3-(4-chlorophenyl)-1-cyclopentyl-1-[(4-methyl-4-piperidyl)methyl]urea]	> 5000
O=C(Nc1ccncc1)N(Cc1cccc(C(F)(F)F)c1)C1CCCC1 [Compound 88, 1-cyclopentyl-3-(4-pyridyl)-1-[[3-(trifluoromethyl)phenyl]methyl]urea]	500 to 1000
Cc1ccc(CN(C(=O)Nc2cccc(C#N)c2)C2CCCC2)o1 [Compound 93, 3-(3-cyanophenyl)-1-cyclopentyl-1-[(5-methyl-2-furyl)methyl]urea]	1000 to 5000
CC(=O)c1ccc(NC(=O)N(Cc2ccc(C)o2)C2CCCC2)cc1 [Compound 94, 3-(4-acetylphenyl)-1-cyclopentyl-1-[(5-methyl-2-furyl)methyl]urea]	1000 to 5000
Cc1ccc(CN(C(=O)Nc2ccccc2C#N)C2CCCC2)o1 [Compound 95, 3-(2-cyanophenyl)-1-cyclopentyl-1-[(5-methyl-2-furyl)methyl]urea]	1000 to 5000
Cc1ccc(CN(C(=O)NCc2ccc(C#N)cc2)C2CCCC2)o1 [Compound 96, 3-[(4-cyanophenyl)methyl]-1-cyclopentyl-1-[(5-methyl-2-furyl)methyl]urea]	> 5000
CC(=O)N1CCC(C)(CN(C(=O)Nc2ccccc2)C2CCCC2)CC1 [Compound 97, 1-[(1-acetyl-4-methyl-4-piperidyl)methyl]-1-cyclopentyl-3-phenyl-urea]	1000 to 5000
Cc1ccc(CN(C(=O)Nc2ccc(-c3cnn(C(=O)OC(C)(C)C)c3)cc2)C2CCCC2)o1 [Compound 99, tert-butyl 4-[4-[[cyclopentyl-[(5-methyl-2-furyl)methyl]carbamoyl]amino]phenyl]pyrazole-1-carboxylate]	500 to 1000
Cc1ccc(CN(C(=O)Nc2ccc(-c3cnn(CCN(C)C)c3)cc2)C2CCCC2)o1 [Compound 100, 1-cyclopentyl-3-[4-[1-[2-(dimethylamino)ethyl]pyrazol-4-yl]phenyl]-1-[(5-methyl-2-furyl)methyl]urea]	> 5000
Cc1ccc(CN(C(=O)Nc2ccc(-c3cnn(C(C)(C)CO)c3)cc2)C2CCCC2)o1 [Compound 101, 1-cyclopentyl-3-[4-[1-(2-hydroxy-1,1-dimethyl-ethyl)pyrazol-4-yl]phenyl]-1-[(5-methyl-2-furyl)methyl]urea]	> 5000
Cc1ccc(CN(C(=O)Nc2ccc(N3CCCC3=O)cc2)C2CCCC2)o1 [Compound 103, 1-cyclopentyl-1-[(5-methyl-2-furyl)methyl]-3-[4-(2-oxopyrrolidin-1-yl)phenyl]urea]	1000 to 5000
Cc1ccc(CN(C(=O)Nc2ccc(-c3cscn3)cc2)C2CCCC2)o1 [Compound 106, 1-cyclopentyl-1-[(5-methyl-2-furyl)methyl]-3-(4-thiazol-4-ylphenyl)urea]	500 to 1000
Cc1ccc(CN(C(=O)Nc2ccc(C#CCN(C)C)cc2)C2CCCC2)o1 [Compound 112, 1-cyclopentyl-3-[4-[3-(dimethylamino)prop-1-ynyl]phenyl]-1-[(5-methyl-2-furyl)methyl]urea]	500 to 1000
CC1(CN(C(=O)Nc2ccc(F)cc2)C2CCCC2)CCN(S(C)(=O)=O)CC1 [Compound 113, 1-cyclopentyl-3-(4-fluorophenyl)-1-[(4-methyl-1-methylsulfonyl-4-piperidyl)methyl]urea]	1000 to 5000
Cc1ccc(CN(C(=O)Nc2ccc(C(N)=O)cc2)C2CCCC2)o1 [Compound 117, 4-[[cyclopentyl-[(5-methyl-2-furyl)methyl]carbamoyl]-amino]benzamide]	1000 to 5000
CC(C)(C)OC(=O)N1CCC(CN(C(=O)Nc2ccccc2)C2CCCC2)CC1 [Compound 118, tert-butyl 4-[[cyclopentyl(phenylcarbamoyl)amino]methyl]piperidine-1-carboxylate]	1000 to 5000
CC(C)(C)OC(=O)N1CCC(CN(C(=O)Nc2ccc(F)cc2)C2CCCC2)CC1 [Compound 119, tert-butyl 4-[[cyclopentyl-[(4-fluorophenyl)carbamoyl]amino]methyl]piperidine-1-carboxylate]	500 to 1000
Cc1ccc(CN(C(=O)Nc2ccc(C#N)cn2)C2CCCC2)o1 [Compound 121, 3-(5-cyano-2-pyridyl)-1-cyclopentyl-1-[(5-methyl-2-furyl)methyl]urea]	500 to 1000
NC(=O)c1cc(CN(C(=O)Nc2ccc(F)cc2)C2CCCC2)ccc1F [Compound 122, 5-[[cyclopentyl-[(4-fluorophenyl)carbamoyl]amino]methyl]-2-fluoro-benzamide]	1000 to 5000

Now from value to compound:

IC50 [nM]	SMILES
100 to 500	O=C(Nc1ccc(Cl)cc1)N(Cc1cccnc1)C1CCCC1 [Compound 66, 3-(4-chlorophenyl)-1-cyclopentyl-1-(3-pyridylmethyl)urea]
100 to 500	O=C(Nc1ccc(Cl)cc1)N(Cc1ccccn1)C1CCCC1 [Compound 69, 3-(4-chlorophenyl)-1-cyclopentyl-1-(2-pyridylmethyl)urea]
500 to 1000	O=C(Nc1ccc(Cl)cc1)N(Cc1cnccn1)C1CCCC1 [Compound 71, 3-(4-chlorophenyl)-1-cyclopentyl-1-(pyrazin-2-ylmethyl)urea]
500 to 1000	O=C(Nc1ccc(Cl)cc1)N(Cc1ccncc1)C1CCCC1 [Compound 76, 3-(4-chlorophenyl)-1-cyclopentyl-1-(4-pyridylmethyl)urea]
100 to 500	CC1(CN(C(=O)Nc2ccccc2)C2CCCC2)CCN(C(=O)OC(C)(C)C)CC1 [Compound 77, tert-butyl 4-[[cyclopentyl(phenylcarbamoyl)amino]methyl]-4-methyl-piperidine-1-carboxylate]
100 to 500	CC1(CN(C(=O)Nc2ccc(F)cc2)C2CCCC2)CCN(C(=O)OC(C)(C)C)CC1 [Compound 78, tert-butyl 4-[[cyclopentyl-[(4-fluorophenyl)carbamoyl]amino]methyl]-4-methyl-piperidine-1-carboxylate]
100 to 500	CC1(CN(C(=O)Nc2ccc(Cl)cc2)C2CCCC2)CCN(C(=O)OC(C)(C)C)CC1 [Compound 79, tert-butyl 4-[[(4-chlorophenyl)carbamoyl-cyclopentyl-amino]methyl]-4-methyl-piperidine-1-carboxylate]
500 to 1000	Cc1ccc(CN(C(=O)Nc2ccncc2)C2CCCC2)o1 [Compound 81, 1-cyclopentyl-1-[(5-methyl-2-furyl)methyl]-3-(4-pyridyl)urea]
< 100	Cc1ccc(CN(C(=O)Nc2ccc(C#CC3CC3)cc2)C2CCCC2)o1 [Compound 107, 1-cyclopentyl-3-[4-(2-cyclopropylethynyl)phenyl]-1-[(5-methyl-2-furyl)methyl]urea]
100 to 500	Cc1ccc(CN(C(=O)Nc2ccc(-c3cn[nH]c3)cc2)C2CCCC2)o1 [Compound 108, 1-cyclopentyl-1-[(5-methyl-2-furyl)methyl]-3-[4-(1H-pyrazol-4-yl)phenyl]urea]
100 to 500	N#Cc1cc(CN(C(=O)Nc2ccc(Cl)cc2)C2CCCC2)ccn1 [Compound 114, 3-(4-chlorophenyl)-1-[(2-cyano-4-pyridyl)methyl]-1-cyclopentyl-urea]
100 to 500	N#Cc1cncc(CN(C(=O)Nc2ccc(Cl)cc2)C2CCCC2)c1 [Compound 115, 3-(4-chlorophenyl)-1-[(5-cyano-3-pyridyl)methyl]-1-cyclopentyl-urea]
100 to 500	N#Cc1ccnc(CN(C(=O)Nc2ccc(Cl)cc2)C2CCCC2)c1 [Compound 116, 3-(4-chlorophenyl)-1-[(4-cyano-2-pyridyl)methyl]-1-cyclopentyl-urea]
100 to 500	CC(C)(C)OC(=O)N1CCC(CN(C(=O)Nc2ccc(Cl)cc2)C2CCCC2)CC1 [Compound 120, tert-butyl 4-[[(4-chlorophenyl)carbamoyl-cyclopentyl-amino]methyl]piperidine-1-carboxylate]
100 to 500	Cc1ccc(CN(C(=O)Nc2ccc(C#N)nc2)C2CCCC2)o1 [Compound 124, 3-(6-cyano-3-pyridyl)-1-cyclopentyl-1-[(5-methyl-2-furyl)methyl]urea]
